In US12662489B2 (Sitryx Therapeutics Limited, priority 2023, dated 2026):
pIC50: −log10 of the molar value.

Key:
[1] = biological target: T1, MTHFD1 recombinant human enzyme (Homo sapiens, UniProt P11586); assay: MTHFD1 inhibition assay (NAD(P)H-Glo luminescence); conditions: MTHFD1 IC50, recombinant human enzyme 200 nM, NADP, band
T1 sequence (P11586 2-291 limits assumed): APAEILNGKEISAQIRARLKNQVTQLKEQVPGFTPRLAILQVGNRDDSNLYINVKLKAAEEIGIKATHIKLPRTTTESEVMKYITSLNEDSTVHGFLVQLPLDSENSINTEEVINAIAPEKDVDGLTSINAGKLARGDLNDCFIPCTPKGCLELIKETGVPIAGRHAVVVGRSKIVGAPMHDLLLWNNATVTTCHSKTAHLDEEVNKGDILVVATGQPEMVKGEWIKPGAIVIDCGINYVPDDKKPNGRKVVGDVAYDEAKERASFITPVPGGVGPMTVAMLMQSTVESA

[2] = biological target: T2, MTHFD2 recombinant human enzyme (Homo sapiens, UniProt P13995); assay: MTHFD2 inhibition assay (NAD(P)H-Glo luminescence); conditions: for MTHFD1/MTHFD2 IC50 ratio: selectivity of MTHFD2 inhibition over MTHFD1, band
T2 sequence (P13995 36-350): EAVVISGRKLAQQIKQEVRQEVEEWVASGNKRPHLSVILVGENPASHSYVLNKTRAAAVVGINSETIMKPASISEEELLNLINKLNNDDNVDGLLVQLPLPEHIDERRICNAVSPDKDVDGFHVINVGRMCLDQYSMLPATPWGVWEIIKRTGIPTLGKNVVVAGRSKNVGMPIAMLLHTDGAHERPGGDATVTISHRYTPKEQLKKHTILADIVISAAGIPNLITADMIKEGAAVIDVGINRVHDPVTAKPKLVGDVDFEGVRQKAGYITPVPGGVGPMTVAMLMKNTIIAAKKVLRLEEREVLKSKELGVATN

Row | Structure (SMILES) | pIC50 [1] | pIC50 [2] | MTHFD1/MTHFD2 IC50 ratio [2]
1 | CCOc1c(C(=O)NS(=O)(=O)N2CC3CC3C2)ccc(C(=O)N2CCc3c(c(=O)oc4c(C)c(N5CCN(C)[C@@H](COC)C5)cc(C)c34)C2)c1F (some centres unmarked) [Example 229] | 7.00 to 8.00 | 7.00 to 8.00 | G (^ 3 to 9.0)
2 | CCOc1c(C(=O)NS(=O)(=O)N2CC3CCC2C3)ccc(C(=O)N2CCc3c(c(=O)oc4c(C)c(N5CCN(C)[C@@H](COC)C5)ccc34)C2)c1F (some centres unmarked) [Example 230] | 6.00 to 7.00 | 7.00 to 8.00 | F (<3)
3 | CCOc1c(C(=O)NS(=O)(=O)N(C2CC2)C2CC2)ccc(C(=O)N2CCc3c(c(=O)oc4c(C)c(N5CCN(C)[C@@H](COC)C5)cc(C)c34)C2)c1F [Example 231] | 7.00 to 8.00 | 7.00 to 8.00 | F (<3)
4 | CCOc1c(C(=O)NS(=O)(=O)N2C[C@H]3CCC[C@H]3C2)ccc(C(=O)N2CCc3c(c(=O)oc4c(C)c(N5CCN(C)[C@@H](COC)C5)cc(C)c34)C2)c1F [Example 232] | 7.00 to 8.00 | 7.00 to 8.00 | F (<3)
5 | CCOc1c(C(=O)NS(=O)(=O)N2CC3(CCC3)C2)ccc(C(=O)N2CCc3c(c(=O)oc4c(C)c(N5CCN(C)[C@@H](COC)C5)cc(C)c34)C2)c1F [Example 233] | 7.00 to 8.00 | 7.00 to 8.00 | F (<3)
6 | CCOc1c(C(=O)NS(=O)(=O)N2C3CCCC2CC3)ccc(C(=O)N2CCc3c(c(=O)oc4c(C)c(N5CCN(C)[C@@H](COC)C5)cc(C)c34)C2)c1F [Example 234] | 7.00 to 8.00 | 7.00 to 8.00 | F (<3)
7 | CCOc1c(C(=O)NS(=O)(=O)N2CC3CCC(C3)C2)ccc(C(=O)N2CCc3c(c(=O)oc4c(C)c(N5CCN(C)[C@@H](COC)C5)cc(C)c34)C2)c1F [Example 235] | 6.00 to 7.00 | 7.00 to 8.00 | G (^ 3 to 9.0)
8 | CCOc1c(C(=O)NS(=O)(=O)N2C3CCCC2CC3)ccc(C(=O)N2CCc3c(c(=O)oc4c(C)c(N5CCN(C)[C@@H](COC)C5)ccc34)C2)c1F [Example 236] | 7.00 to 8.00 | 7.00 to 8.00 | F (<3)
9 | CCOc1c(C(=O)NS(=O)(=O)N2CC3CCC(C3)C2)ccc(C(=O)N2CCc3c(c(=O)oc4c(C)c(N5CCN(C)[C@@H](COC)C5)ccc34)C2)c1F [Example 237] | 7.00 to 8.00 | 7.00 to 8.00 | F (<3)
10 | COC[C@H]1CN(c2cc(C)c3c4c(c(=O)oc3c2C)CN(C(=O)c2ccc(C(=O)NS(=O)(=O)N(C)C3CCCC3)c(OC)c2F)CC4)CCN1C [Example 238] | 6.00 to 7.00 | 7.00 to 8.00 | H (>9.0 to 30)
11 | COC[C@H]1CN(c2cc(C)c3c4c(c(=O)oc3c2C)CN(C(=O)c2ccc(C(=O)NS(=O)(=O)N3CCCCC3)c(OC)c2F)CC4)CCN1C [Example 239] | 6.00 to 7.00 | 7.00 to 8.00 | H (>9.0 to 30)
12 | COC[C@H]1CN(c2cc(C)c3c4c(c(=O)oc3c2C)CN(C(=O)c2ccc(C(=O)NS(=O)(=O)N3CCC(F)CC3)c(OC)c2F)CC4)CCN1C [Example 240] | 6.00 to 7.00 | 7.00 to 8.00 | H (>9.0 to 30)
13 | CCc1c(C(=O)NS(=O)(=O)N2C3CCC2CC3)ccc(C(=O)N2CCc3c(c(=O)oc4c(C)c(N5CCN(C)[C@@H](COC)C5)cc(C)c34)C2)c1F [Example 242] | 6.00 to 7.00 | 7.00 to 8.00 | H (>9.0 to 30)
14 | COC[C@H]1CN(c2cc(C)c3c4c(c(=O)oc3c2C)CN(C(=O)c2cc(F)c(C(=O)NS(=O)(=O)N3CCCC3)cc2N(C)C)CC4)CCN1C [Example 243] | 5.30 to 6.00 | 7.00 to 8.00 | J (>30)
15 | [2H]C([2H])([2H])Oc1c(C(=O)NS(=O)(=O)N2C3CCC2CC3)ccc(C(=O)N2CCc3c(c(=O)oc4c(C)c(N5CCN(C)[C@@H](COC)C5)cc(C)c34)C2)c1F [Example 252, (R)-N-((7-azabicyclo[2.2.1]heptan-7-yl)sulfonyl)-3-fluoro-2-(methoxy-d3)-4-(8-(3-(methoxymethyl)-4-methylpiperazin-1-yl)-7,10-dimethyl-5-oxo-1,3,4,5-tetrahydro-2H-chromeno[3,4-c]pyridine-3-carbonyl)benzamide] | 6.00 to 7.00 | 8.00 to 9.00 | J (>30)
16 | CCOc1c(C(=O)NS(=O)(=O)N2CCCC2)ccc(C(=O)N2CCc3c(c(=O)oc4c(C)c(N5CCN(C)[C@@H](COC)C5)cc(Cl)c34)C2)c1F [Example 258, (R)-4-(10-chloro-8-(3-(methoxymethyl)-4-methylpiperazin-1-yl)-7-methyl-5-oxo-1,3,4,5-tetrahydro-2H-chromeno[3,4-c]pyridine-3-carbonyl)-2-ethoxy-3-fluoro-N-(pyrrolidin-1-ylsulfonyl)benzamide] | 7.00 to 8.00 | 8.00 to 9.00 | H (>9.0 to 30)
17 | CCOc1cc(C(=O)N2CCc3c(c(=O)oc4c(C)c(N5CCN(C)[C@@H](COC)C5)cc(C)c34)C2)c(F)cc1C(=O)NS(=O)(=O)N1CC[C@@H](F)C1 [Example 261, 2-ethoxy-5-fluoro-N-(((R)-3-fluoropyrrolidin-1-yl)sulfonyl)-4-(8-((R)-3-(methoxymethyl)-4-methylpiperazin-1-yl)-7,10-dimethyl-5-oxo-1,3,4,5-tetrahydro-2H-chromeno[3,4-c]pyridine-3-carbonyl)benzamide] | 6.00 to 7.00 | 8.00 to 9.00 | 
18 | CCOc1cc(C(=O)N2CCc3c(c(=O)oc4c(C)c(N5CCN(C)[C@@H](COC)C5)cc(C)c34)C2)c(F)cc1C(=O)NS(=O)(=O)N(C)C1CC1 [Example 269, (R)-N-(N-cyclopropyl-N-methylsulfamoyl)-2-ethoxy-5-fluoro-4-(8-(3-(methoxymethyl)-4-methylpiperazin-1-yl)-7,10-dimethyl-5-oxo-1,3,4,5-tetrahydro-2H-chromeno[3,4-c]pyridine-3-carbonyl)benzamide] | 7.00 to 8.00 | 8.00 to 9.00 | J (>30)
19 | COC[C@H]1CN(c2cc(Cl)c3c4c(c(=O)oc3c2C)CN(C(=O)c2cc(N(C)C)c(C(=O)NS(=O)(=O)N3CCCCC35COC5)cc2F)CC4)CCN1C [Example 271, (R)-N-((2-oxa-5-azaspiro[3.5]nonan-5-yl)sulfonyl)-4-(10-chloro-8-(3-(methoxymethyl)-4-methylpiperazin-1-yl)-7-methyl-5-oxo-1,3,4,5-tetrahydro-2H-chromeno[3,4-c]pyridine-3-carbonyl)-2-(dimethylamino)-5-fluorobenzamide] | 5.30 to 6.00 | 7.00 to 8.00 | H (>9.0 to 30)
20 | COC[C@H]1CN(c2cc(Cl)c3c4c(c(=O)oc3c2C)CN(C(=O)c2cc(N(C)C)c(C(=O)NS(=O)(=O)N3CCCC5(COC5)C3)cc2F)CC4)CCN1C [Example 272, (R)-N-((2-oxa-6-azaspiro[3.5]nonan-6-yl)sulfonyl)-4-(10-chloro-8-(3-(methoxymethyl)-4-methylpiperazin-1-yl)-7-methyl-5-oxo-1,3,4,5-tetrahydro-2H-chromeno[3,4-c]pyridine-3-carbonyl)-2-(dimethylamino)-5-fluorobenzamide] | 6.00 to 7.00 | 7.00 to 8.00 | H (>9.0 to 30)
